# Test results reported in PubChem BioAssay AID624359 (Broad Institute, 2012).
# Records with an inconclusive call do not appear. Calls of active or inactive are those of the source.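 How the source made its calls: active means fitted curve reaches 35% inhibition at a concentration up to twice the top valid dose; inconclusive means no clear call, values can overlap the other calls; inactive means the rest, including signal moving the opposite way.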
# Tested on: HEK293 LMP1 TES2 NF-kB luciferase reporter, 16 h
# Assay: inhibitors of LMP1-driven NF-kB reporter, dose response, cell-based, EBV LMP1, luciferase, dry powder (AID 624359)
# Settings: not given
row,Compound,AC35 [µM]
1,COc1cccc(/C=N/Nc2ncnc3c2ncn3Cc2ccccc2)c1O,43.4
2,C/C(=N\NC(=S)N1CCC1)c1ccccn1,1.33
3,O=C(CCc1ccccc1)NC(c1cccs1)c1cc(Cl)c2cccnc2c1O (stereo not given),43.9
4,COc1ccc2[nH]c(C(=O)N/N=C/c3ccc(O)cc3O)cc2c1,9.11
5,C/C(=N\NC(=S)N1CCN(c2ccccn2)CC1)c1ccccn1,10.5
6,C/C(=N\NC(=S)N1CC2CCC(CC2)C1)c1ccccn1,5.42
7,C/C(=N\NC(=S)N1CCCC1)c1ccccn1,0.884
8,CCc1sc(C(=O)Nc2ncccc2O)cc1C,20.8
9,O=C1/C(=C/c2ccncc2)SC(=S)N1Cc1ccccc1,29
10,C[C@@H]1CN([C@@H](C)CO)C(=O)c2cc(NC(=O)Nc3ccc4c(c3)OCO4)ccc2O[C@H]1CN(C)CC1CCCCC1,0.738
11,Cc1ccc(S(=O)(=O)Nc2ccc3c(c2)C(=O)N([C@@H](C)CO)C[C@H](C)[C@@H](CN(C)C(=O)CCC(F)(F)F)OCCCC[C@H](C)O3)cc1,0.619
12,Fc1ccc2c(c1)c1nnc(SCCN3CCOCC3)nc1n2Cc1ccccc1,10.1
13,C[C@H](CO)N1C[C@H](C)[C@@H](CN(C)CC2CC2)OCCCC[C@H](C)Oc2ccc(NC(=O)Nc3cccc4ccccc34)cc2C1=O,0.541
14,S=C(N/N=C(\c1ccccc1)c1ccccn1)N(Cc1ccccn1)Cc1ccccn1,6
15,COCCCNC(=O)C(C)Sc1nnc2c3cc(C)ccc3n(Cc3ccccc3F)c2n1 (stereo not given),25.8
16,CCC(Sc1nnc2c3ccccc3n(Cc3ccc(Br)cc3)c2n1)C(=O)NCCCN1CCOCC1 (stereo not given),5.65

row,Compound,AC35 [µM]
1,Cc1ccc(NC(=O)C2CCN(S(=O)(=O)c3ccc4c(c3)NC(=O)C(C)S4)CC2)cc1Cl (stereo not given),4.01
2,c1ccc(Cn2c3ccccc3c3nnc(SCCN4CCCCC4)nc32)cc1,11
3,Nc1ccn([C@@H]2O[C@H](CO)[C@@H](O)C2O)c(=O)n1 (stereo not given in full),27.5
4,CC12CCC3C(CC=C4CC(O)CCC43CO)C1CCC2OC(=O)c1ccccc1 (stereo not given),6.56
5,O=c1[nH]c(=O)n([C@H]2C[C@H](O)[C@@H](CO)O2)cc1C(F)(F)F,8.74
6,CC(C)=CCN(C(=O)C#Cc1ccccc1)[C@H](CO)c1ccccc1,3.79
7,CCN1CCN(C(c2cccnc2)c2cc(Cl)c3cccnc3c2O)CC1 (stereo not given),7.4
8,O=C(Nc1cc(C(F)(F)F)cc(C(F)(F)F)c1)Nc1cnn(-c2ccc([N+](=O)[O-])cc2)c1C(F)(F)F,40.7
9,COc1ccccc1[C@]1(C)ON(c2ccccc2C(F)(F)F)C1=O,7.88
10,C/C=C/C/C=C/CCC(=O)[C@H]1O[C@H]1C(N)=O,13.2
11,C[C@H](CO)N1C[C@H](C)[C@H](CN(C)C(=O)Nc2ccc(C(F)(F)F)cc2)OCCCC[C@H](C)Oc2ccc(NC(=O)Nc3ccc(F)cc3)cc2C1=O,16.6
12,CCCSc1nnc2c3ccccc3n(Cc3ccccc3)c2n1,3.4
13,C/C(=N\NC(=S)N1CCCCC1)c1cccc(C)n1,0.492
14,C[C@H](CO)N1C[C@H](C)[C@@H](CN(C)Cc2ccc(-c3ccccc3)cc2)Oc2ccc(NC(=O)Nc3cccc4ccccc34)cc2CC1=O,4.13
15,S=C(NCc1ccccn1)N/N=C/c1ccccn1,5.41

# Tested on: not listed separately
# Assay: as above
# Settings: HEK293 LMP1 TES2 NF-kB luciferase reporter, 16 h; at 12 µM (top of the series)
row,Compound,"activity change, negative = inhibition"
1,C/C(=N\NC(=S)N1CCN(C2CCCCCC2)CC1)c1ccccn1,33.5% (inactive)

# Same assay, conditions: HEK293 LMP1 TES2 NF-kB luciferase reporter, 16 h; at 15 µM (top of the series)
row,Compound,"activity change, negative = inhibition"
1,C=C1C[C@]23C[C@@]1(O)CC[C@H]2[C@@]12C=C[C@H](O)[C@@](C)(C(=O)O1)[C@H]2[C@@H]3C(=O)O,-4.73% (inactive)

# Same assay, conditions: HEK293 LMP1 TES2 NF-kB luciferase reporter, 16 h; at 26 µM (top of the series)
row,Compound,"activity change, negative = inhibition"
1,C/C(=N\NC(=S)Nc1cccc(C)c1)c1ccccn1,74.3% (inactive)
2,Cc1c(NC(=O)c2cccc(NC(=O)COc3ccccc3C#N)c2)c(=O)n(-c2ccccc2)n1C,47.5% (inactive)
3,C[C@@H]1CCCCO[C@H](CN(C)C(=O)CCC(F)(F)F)[C@H](C)CN([C@@H](C)CO)C(=O)c2cc(NC(=O)CCC(F)(F)F)ccc2O1,-12.3% (inactive)
4,CCn1c2ccccc2c2cc(/C=N/n3cnnc3)ccc21,30.3% (inactive)
5,CSc1nc(-c2ccc(C)cc2)nc(C(Cl)Cl)n1,12% (inactive)
6,CSC(=S)N/N=C(\C)c1cccc(C)n1,8.74% (inactive)
7,COc1ccc2nc(Nc3nc(C)c(CCC(C)C)c(=O)[nH]3)nc(C)c2c1,42.5% (inactive)
8,C/C(=N\NC(=S)N1CC2CCC(CC2)C1)c1ccncn1,-1.33% (inactive)
9,Oc1cccc(C(Nc2nccs2)c2ccc3cccnc3c2O)c1 (stereo not given),23.7% (inactive)
10,C[C@@H]1CN([C@@H](C)CO)C(=O)c2cccc(NC(=O)Nc3cccc4ccccc34)c2O[C@H]1CN(C)C(=O)Nc1ccc(C(F)(F)F)cc1,26.9% (inactive)
11,C/C(=N\NC(=S)Nc1ccccc1Cl)c1ccccn1,51.4% (inactive)
12,C[C@@H]1CCCCO[C@H](CN(C)CC2CCCCC2)[C@H](C)CN([C@@H](C)CO)C(=O)c2cc(NC(=O)NC3CCCCC3)ccc2O1,-3.54% (inactive)
13,C[C@@H]1CCCCO[C@@H](CN(C)Cc2ccccc2)[C@H](C)CN([C@H](C)CO)C(=O)c2cc(NC(=O)Nc3ccc4c(c3)OCO4)ccc2O1,-6.74% (inactive)
14,C[C@H](CO)N1C[C@H](C)[C@@H](CN(C)CC2CCCCC2)OCCCC[C@H](C)Oc2ccc(NC(=O)Nc3cccc4ccccc34)cc2C1=O,23.2% (inactive)
15,c1ccc(-c2cn3c4c(sc3n2)CCCC4)cc1,6.83% (inactive)
16,O=c1[nH]c(Nc2nc3ccccc3o2)nc2c1CCCC2,2.84% (inactive)

row,Compound,"activity change, negative = inhibition"
1,C[C@@H]1CCCCO[C@H](CN(C)S(=O)(=O)c2ccccc2)[C@@H](C)CN([C@@H](C)CO)C(=O)c2cc(N(C)C)ccc2O1,-2.27% (inactive)
2,CC(=O)Nc1nc(C)c(-c2csc(Nc3ccc(O)cc3)n2)s1,83.3% (inactive)
3,CNC[C@@H]1Oc2ccc(NS(=O)(=O)c3cn(C)cn3)cc2CC(=O)N([C@H](C)CO)C[C@@H]1C,7.33% (inactive)
4,COc1ccc(-c2csc3ncnc(NCCN4CCOCC4)c23)cc1,9.04% (inactive)
5,CCc1ccc(/C=C2\SC(=S)N(CCCC(=O)Nc3ccccn3)C2=O)cc1,9.57% (inactive)
6,CCc1ccc(/C=C/C(=O)C2C(=O)c3ccccc3C2=O)cc1,28.8% (inactive)
7,Cc1ccc(S(=O)(=O)NC(CC(C)C)C(=O)NCC(c2ccco2)N2CCCCC2)cc1 (stereo not given),-1.92% (inactive)
8,COc1ccc(C(=O)Nc2ccc3[nH]ccc3c2)cc1,13.6% (inactive)
9,C[C@@H]1CN([C@@H](C)CO)C(=O)c2cc(NC(=O)Nc3ccc(C(F)(F)F)cc3)ccc2O[C@@H](C)CCCCO[C@H]1CN(C)Cc1ccc(C(F)(F)F)cc1,24% (inactive)
10,C[C@@H]1CCCCO[C@H](CN(C)C(=O)c2ccccc2)[C@H](C)CN([C@@H](C)CO)C(=O)c2cc(NC(=O)Nc3ccc(F)cc3)ccc2O1,-13.1% (inactive)
11,CC1CN(C(=O)CSc2nnc3c4ccccc4n(Cc4cccc(Cl)c4)c3n2)CCN1C(=O)c1ccccc1F (stereo not given),42.2% (inactive)
12,COc1ccccc1NC(=S)N/N=C(\C)c1ccccn1,-20.4% (inactive)
13,C=CCN1Cc2ccccc2[C@@H]2OC(c3ccc(OCCCO)cc3)=N[C@]2(CCC(=O)OC(C)(C)C)C1=O,3.78% (inactive)
14,CC1=C(C(=O)OCc2ccc3c(c2)OCO3)C(c2ccc(F)cc2)NC(=O)N1 (stereo not given),-13.4% (inactive)
15,O=C(CSc1nnc2c3ccccc3n(Cc3ccccc3)c2n1)NCc1ccco1,12.9% (inactive)
16,COc1ccc(-c2cc3nc4n(c(=O)c3s2)CCC4)cc1,20.7% (inactive)
